According to patent US20250326792A1, “A FORMULATION FOR TREATMENT OF PIGMENTARY DISORDERS” (priority 2022, published 2025):

Experiments:
[1] = tested on: Tyrosinase; assay: Tyrosinase activity assay (L-DOPA) in NHEM cells; format: cell-based, Human; conditions: for increase in Tyrosinase activity when compared to control: NHEM cells, positive control
Experimental: (§1) Culture and maintenance of cell lines: B16F10 cells were cultured in RPMI containing 10% fetal bovine serum, 100 units per millilitre (U/mL) penicillin, 0.1 mg/mL streptomycin, and 0.25 microgram per millilitre (μg/mL) amphotericin B at 37 degrees Celsius in a humidified 95% air/5% CO2 incubator. Drug treatment was done 24 hours after seeding. Cells were harvested 48 hours later and melanin content and tyrosinase activity determined in triplicate. NHEM cells were cultured in DMEM containing 10% fetal bovine serum, 100 units per milliliter (U/mL) penicillin, 0.1 mg/mL streptomycin, and 0.25 microgram per millilitre (μg/mL) amphotericin B at 37 degrees Celsius in a humidified 95% air/5% CO2 incubator. Drug treatment was done 24 hours after seeding. Cells were harvested 48 hours later and melanin content and tyrosinase activity determined in triplicate.
(§2) IS103 was dissolved in water for injection or DMSO to prepare stock solution of about 50 mg/ml. The stock solution was used for preparation of subsequent dilutions in solvent to achieve working dilutions for treatment ranging 0.1 μg/ml to 1000 μg/ml.
(§3) Tyrosinase activity was determined using L-DOPA as a substrate. Briefly, B16F10 and NHEM cells were seeded in a 6-well plate (2×10^4 cells/well) and incubated for overnight. The cells were then treated with or without the test compounds for 46 hours and were washed twice with ice cold PBS and extracted by sonication in 100 μl of 0.1M Tris-HCl buffer (pH 7.2) containing 1% Nonidet P-40, 0.01% SDS, 100 μM phenyl methyl sulfonyl fluoride, and 1 μg/ml aprotinin and then centrifuged at 10,000 g for about 10 minutes at 4° C. The supernatants collected were used for enzyme assay and its protein content was estimated by method of Bradford using BSA as standard. Samples of cell extract supernatant were incubated in duplicate for 1 hour at 37° C. in 1 ml of 0.1M sodium phosphate buffer (pH 7.4) containing 0.1% L-DOPA. The absorbance was then monitored at 450 nm and compared with purified mushroom tyrosinase (Sigma). The standard curve was prepared limiting linearity within the range of experimental value.

[2] = tested on: B16F10 cells; assay: Melanin content assay in B16F10 cells; format: cell-based; conditions: B16F10 CELLS; 100 μM
Experimental: as §1, §2
Cells were seeded in a 6-well plate (2×10^4 cells/well) and incubated overnight to allow the cells to adhere. After treating with various test samples for 4 or 5 days, cells were washed with phosphate-buffered saline (PBS), trypsinized, counted, and then lysed in 1 N NaOH at 100° C. for about 1 hour. The melanin content in each sample was calculated by comparison of absorbance at 400 nm of unknown samples with a standard curve obtained using synthetic melanin. […] B16F10 and NHEM cells were treated with different concentrations of IS103 ranging from 0.1 to 1000 μg/ml and analysed melanin contents in cells. […] To assess the toxicity of the IS103 peptide, cell viability was analyzed by MTT assay.

[3] = tested on: NHEM cells; assay: Melanin content assay in NHEM cells; format: cell-based, Human; conditions: NHEM CELLS
Experimental: as §1, §2
Cells were seeded in a 6-well plate (2×10^4 cells/well) and incubated overnight to allow the cells to adhere. After treating with various test samples for 4 or 5 days, cells were washed with phosphate-buffered saline (PBS), trypsinized, counted, and then lysed in 1 N NaOH at 100° C. for about 1 hour. The melanin content in each sample was calculated by comparison of absorbance at 400 nm of unknown samples with a standard curve obtained using synthetic melanin. IS103 enhances melanin synthesis in a dose dependent manner without significant toxicity. B16F10 and NHEM cells were treated with different concentrations of IS103 ranging from 0.1 to 1000 μg/ml and analysed melanin contents in cells. It was observed that IS103 was able to enhance pigmentation of B16F10 and NHEM cells in a dose-dependent manner (Table 18 and FIGS. 4 and 5). […] To assess the toxicity of the IS103 peptide, cell viability was analyzed by MTT assay.

[4] = tested on: Tyrosinase; assay: Tyrosinase activity assay (L-DOPA) in B16F10 cells; format: cell-based; conditions: for increase in Tyrosinase activity when compared to control: B16F10 cells, positive control
Experimental: as §1, §2, §3

[5] = TYROSINASE ACTIVITY table, NHEM CELLS, 100 μM
[6] = TYROSINASE ACTIVITY table, B16F10 CELLS, 100 μM

`CC(C)Cn1c(=O)n(C)c(=O)c2[nH]cnc21` [IBMX, 3-isobutyl-1-methylxanthine, reference compound] was tested, and the “increase in Tyrosinase activity when compared to control” value (“increase in Tyrosinase activity when” for short) ([1]; 100 μM) was 56%, the “% increase in tyrosinase activity compared to control” value (“% increase in tyrosinase activity” below) [1, 5] was 56% and the Tyrosinase activity [1, 5] was 70.3 ± 4.20. For the same compound, the “% increase in melanin content compared to control” value (“% increase in melanin content” below) [2] was 180%, the “Fold change in melanin content” value [2] was 2.8 ± 0.20 and the “% increase in melanin content” value ([3]; 100 μM) was 160%. The “Fold change in melanin content” value ([3]; 100 μM) was 2.6 ± 0.20, the “increase in Tyrosinase activity when” value ([4]; 100 μM) was 59% and the “% increase in tyrosinase activity” value [4, 6] was 59%. For the same compound, the “Change in tyrosinase activity” value [4, 6] was 74.0 ± 5.10.
“α-Melanocyte Stimulating Hormone [α-MSH, reference compound]” was tested, and the “increase in Tyrosinase activity when” value ([1]; 100 nM) was 56.33%, the “% increase in tyrosinase activity” value ([1]; TYROSINASE ACTIVITY table, NHEM CELLS, 100 nM) was 56.33% and the “% increase in melanin content” value ([3]; 100 nM) was 190%. The “increase in Tyrosinase activity when” value ([4]; 100 nM) was 57.33% and the “% increase in tyrosinase activity” value ([4]; TYROSINASE ACTIVITY table, B16F10 CELLS, 100 nM) was 57.33%.
